{
  "source": "patent US10836767B2",
  "about": "“Serum stable pro-coelenterazine analogues” (PROMEGA CORPORATION, priority 2017, dated 2020)",
  "key": {"[1]": {"assay": "Stability test by HPLC in DMSO or DMEM media with or without fetal bovine serum", "format": "in vitro ADME", "details": "40 μM; DMEM media with 10% FBS; 10 hours", "protocol": "“Serum stability” refers to the stability of a compound in media or culture that includes serum. The serum as used herein may include, but is not limited to, fetal bovine serum (FBS). Serum stability of a compound as used herein generally may be characterized by the extent of degradation of such compound in a serum over a period of time. For example, a compound may degrade by less than 25%, less than 20%, less then 15%, or even less than 10% in FBS over a period of 24 hours or longer. For live cell assays, serum (such as FBS) is a component to maintain cell health. The degree of degradation of the disclosed compounds or the other pro-coelenterazine analogues in DMSO control, or DMEM media with/without FBS, can be monitored by HPLC using specific elution solvent/buffer (e.g. 0.1% TFA and acetonitrile) under the same condition at certain time of points. The percentage of purity can be calculated by the peak area of the tested compound divided by the total peak areas including tested compound and degradation compounds at their corresponding retention time at certain absorbance wavelength (e.g. 260 nm) at certain time point in media with/without FBS. The changes of purity for a given compound over time indicate the degree of instability of the compound in media/culture with/without serum.\nThe tested compounds were dissolved in DMSO stock at a concentration of 20 mM. […]"}, "[2]": {"system": "HEK 293 cells transiently transfected with SmBiT-PRKACA and LgBiT-PRKAR2A", "assay": "Live cell assay, luminescent signal decay over time in HEK293 cells expressing the PKA NanoBiT pair", "format": "cell-based", "details": "DMEM, 4% FBS; for luminescent signal decay: almost independent of concentration; for strength of signal relative to PBI-4377: concentration above 20 uM", "protocol": "Compounds WZ-0429, WZ-0439, WZ-0454, WZ-0441, WZ-0451. WZ-0416, WZ-0420, WZ-0461 and WZ-0419 were tested in HEK 293 cells transiently transfected plasmid DNA constructs for SmBiT-PRKACA and LgBiT-PRKAR2A expressed via the HSV-TK promoter in DMEM media with 4% FBS, and the luminescent signal decays were monitored over time. […] In contrast, the serum instable compounds, WZ-0429. […] The evaluations of compounds WZ-0429, WZ-0439, WZ-0454, WZ-0441, WZ-0451. WZ-0416, WZ-0420, WZ-0461 and WZ-0419 were performed by the following protocol.\nDay 1, plate cells. HEK293 cells were grow in complete medium [DMEM+10% FBS+1× NEAA]. Cells were plated at approximately 10,000 cells per well (100 μL) in 96-well plates (Corning 3917).\nDay 2, transient transfection. Plasmid DNA constructs for SmBiT-PRKACA and LgBiT-PRKAR2A expressed via the HSV-TK promoter were diluted to 6.25 ng/μL in Opti-MEM® I and FuGENE HD was added at a 3:1 lipid:DNA ratio. After a 5-10 minute incubation at room temperature, 8 μl of lipid:DNA solution was added per well, and cells were incubated in a 37° C., 5% CO2 incubator overnight.\nDay 3, live cell assay. Compounds were dissolved to 50 mM final in DMSO. Compounds were diluted in DMSO to give 33.3, 16.7 and 6.7 mM stocks. DMSO stock solutions were diluted 667-fold in Opti-MEM® I to give 1× solutions. Complete medium was aspirated and replaced with the respective 1× solution containing 75, 50, 25 or 10 uM of the respective compounds (0.15% v/v DMSO final), such as WZ-0429, WZ-0439, WZ-0454, WZ-0441WZ-0451, WZ-0416, WZ-0420 and WZ-0419, but containing 40, 30, 20 or 10 μM as an instead for compound WZ-0461. Luminescence was measured on a GloMax Multi Plus luminometer every 15 minutes at 37° C. using a 1 second integration time."}, "[3]": {"system": "DLD-1 cells", "assay": "Complementary NanoLuc fragment-fused Annexin V real-time apoptosis assay", "format": "cell-based", "details": "10,000 DLD-1 cells/well; rhTRAIL; t=3.5, 7, 24 and 30 hr", "from_the_text": "Small and large fragments of luciferase have been engineered as fusion proteins linked to annexin V for detecting of apoptosis in real-time using a plate-reading luminometer. The individual annexin V-luciferase fragment fusion pairs have low intrinsic affinity for each other, and thus produce no or low luminescence in culture medium or in the presence of non-apoptotic cells; but, when the annexin V-luciferase fragment fusion proteins bind in close proximity to phosphatidylserine exposed on the surface of apoptotic cells, the luciferase fragments reconstitute an active enzyme and generate a luminescent signal.\nGeneral protocol for complementary NanoLuc® fragment-fused-Annexin V binding: DLD-1 cells (10,000/well; 100 μL) were plated in medium+10% FBS and 2× CellTox Green in a solid white 96-well plate. After the cells were allowed to attach, 50 μL of recombinant human TRAIL at final concentration 500 ng/ml in medium+10% FBS fortified with 1 mM CaCl2 was added. […] The plate was incubated at 37° C./5% CO2 in a tissue culture incubator, and luminescence and fluorescence (Ex 485/Em 520) was measured kinetically at the indicated time points. […] The kinetically preceded increases in fluorescence of Cytotox Green indicate cell death. […]"}, "[4]": {"system": "CMV promoter-NanoLuc® gene transfected HEK293 cells", "assay": "Live cell reporter gene assay, luminescent signal decay over time with/without porcine liver esterase (PLE)", "format": "cell-based", "details": "DMEM, 10% FBS", "protocol": "The synthesized pro-coelenterazine or pro-furimazine compounds were evaluated in a live cell reporter gene assay. As shown in FIGS. 3A-C, the luminescent signal decays were monitored over time in HEK293 cells in DMEM media with 10% FBS transfected with 10 ng/well of CMV promoter-NanoLuc® gene with/without adding exogenous esterase porcine liver esterase (PLE) with three representative pro-coelenterazine analogues, e.g. serum instable compound WZ-0308, traditional live cell pro-substrate PBI-4377, and disclosed serum stable compound WZ-0324. The evaluations were performed by the following protocol.\nDay 1: Plate cells. HEK293 cells were grown in complete medium (DMEM+10% FBS+1× Non-Essential Amino Acids (NEAA)). The cells were harvested at passasge 6 (˜95% confluent), by a procedure of: washing with DPBS, treating the cells with TrypLE Express until cells dislodged, adding 4× volumes of complete medium, pelleting at 188×g for 2 minutes, and suspending the cells in complete medium to 7.35E4 cells/mL. The cells were plated 100 μL per well into the inner 60 wells of 96-well plates (7,350 cells per well): 100 μL DPBS in the 36 outside wells and 100 μL DPBS between wells. The cells were than incubated overnight at 37° C., 5% CO2.\nDay 2: Transfection. Two two master mixes (MM) were made: MM#1: 1.63 μL prep #1; 9.5 μL prep #3; 1.9 mL OM1; and MM#2: 2.9 uL prep #2; 9.5 μL prep #3; 1.9 mL OM1. 35.6 μl FuGENE HD was added to each MM and mixed by pipetting up/down. The mixture was incubated for ˜10 minutes at room temperature. Next, 8 μL of the mixture was added per well using single channel repeater pipette; n=3 per condition. The mixture was then incubated for ˜24 hours at 37° C., 5% CO2.\n(§1) Day 3: Live cell assay. Stocks of tested compounds in DMSO (500×) were prepared by serial dilution of 50 mM stock with DMSO. The Medium+/− porcine liver esterase (PLE) at room temperature was prepared by adding 1 and 0.333 ug/ml PLE in CO2 IM+10% FBS. CO2 IM+10% FBS with no added PLE was also prepared. Next, medium+test compound solutions (room temperature) was prepared by the steps of: adding 2 mL of respective medium per channel, adding 4 μL respective tested compound stock per channel and mixing by pipetting up/down 10-15×. The final DMSO concentration was 0.2% v/v. The DMSO solution was dropped to the bottom of the channel, showing precipitation for the higher concentrations. After pipetting up/down, solutions with WZ-0324 at a final concentration of ≥50 uM were noticeably hazy (100 uM>75 uM>50 uM), in some cases even after extended incubation at 37° C. The Solutions were allowed to stand at room temperature for 15-20 minutes prior to addition to cells (P1->P2->P3).\nThe medium was aspirated and replaced with 200 μL/well of respective medium+tested compound solution. DPBS was added to 200 μL total to outside 36× wells. The system was quickly moved to respective GMM+ to start RLU measurements at 37° C. The measuments were carried out under the following conditions: 1 second integration time; RLU measurement every 15 minutes; the lid was removed for the overnight RLU measurements; and initial RLU measurement would be <37° C. owing to the addition of room temperature medium and cooling of the plate.\nData analysis: average RLU plotted for n=3; error represented as standard deviation was included in each imbedded Prism file, but not shown for the sake of clarity in interpreting the curves."}, "[5]": {"assay": "Haze (solubility) observation of medium + test compound solutions", "format": "physicochemical", "details": "for concentration above which haze was observed: medium + compound solution", "protocol": "as §1"}},
  "note": "Entries after “also recorded” stand apart in the source; their conditions may differ.",
  "data": [
    {"smiles": "CC(C)C(=O)OCOc1c(Cc2ccco2)nc2c(Cc3ccccc3)nc(-c3ccccc3)cn12", "note": "[WZ-0415]", "values": [
      {"measurement": "degradation (HPLC purity change)", "setting": "[1]", "value": "approximately 50%"}
    ]},
    {"smiles": "O=C(OCOc1c(Cc2ccco2)nc2c(Cc3ccccc3)nc(-c3ccccc3)cn12)C1CCOC1", "note": "(stereo not drawn) [WZ-0439]", "values": [
      {"measurement": "luminescent signal decay", "setting": "[2]", "value": "rapid signal decay"}
    ]},
    {"smiles": "COCCOCCOCCOCC(C)(C)C(=O)OCOc1c(Cc2ccco2)nc2c(Cc3ccccc3)nc(-c3ccccc3)cn12", "note": "[WZ-0336, ((8-benzyl-2-(furan-2-ylmethyl)-6-phenylimidazo[1,2-a]pyrazin-3-yl)oxy)methyl 13,13-dimethyl-2,5,8,11-tetraoxatetradecan-14-oate]", "values": [
      {"measurement": "luminescence response to TRAIL with the compound as pro-substrate", "setting": "[3]", "value": "dose-dependent increases in luminescence"}
    ]},
    {"smiles": "COC(C)(C)C(=O)OCOc1c(Cc2ccco2)nc2c(Cc3ccccc3)nc(-c3ccccc3)cn12", "note": "[WZ-0451, ((8-benzyl-2-(furan-2-ylmethyl)-6-phenylimidazo[1,2-a]pyrazin-3-yl)oxy)methyl 2-methoxy-2-methylpropanoate]", "values": [
      {"measurement": "strength of signal relative to PBI-4377", "setting": "[2]", "value": 10, "unit": "times"}
    ]},
    {"smiles": "CC(=O)OCOc1c(Cc2ccco2)nc2c(Cc3ccccc3)nc(-c3ccccc3)cn12", "note": "[WZ-0308]", "values": [
      {"measurement": "signal at the initial time point", "setting": "[4]", "value": "highest signal"},
      {"measurement": "luminescent signal decay", "setting": "[4]; FIG. 3A", "value": "rapid signal decay"},
      {"measurement": "period of rapid luminescent signal decay", "setting": "[4]; even without exogenous PLE", "value": "2 to 3", "unit": "h"}
    ]},
    {"smiles": "COCCOCCOCC(C)(C)C(=O)OCOc1c(Cc2ccco2)nc2c(Cc3ccccc3)nc(-c3ccccc3)cn12", "note": "[WZ-0324, ((8-benzyl-2-(furan-2-ylmethyl)-6-phenylimidazo[1,2-a]pyrazin-3-yl)oxy)methyl 3-(2-(2-methoxyethoxy)ethoxy)-2,2-dimethylpropanoate]", "values": [
      {"measurement": "luminescence after addition of exogenous PLE esterase versus without PLE", "setting": "[4]; PLE added", "value": "significantly enhanced; also recorded: significantly higher luminescence"},
      {"measurement": "signal in the absence of exogenous PLE esterase, versus PBI-4377", "setting": "[4]; no PLE", "value": "higher signal"},
      {"measurement": "final concentration at which solutions were noticeably hazy", "setting": "[5]; CO2 IM + 10% FBS, 0.2% v/v DMSO, after pipetting up/down", "value": "≥ 50", "unit": "µM"},
      {"measurement": "concentration above which haze was observed", "setting": "[5]", "value": "above 70 μM"},
      {"measurement": "concentration above which haze was observed", "setting": "[5]; listed as WZ-324", "value": "> 70", "unit": "µM"}
    ]},
    {"smiles": "O=C(OCOc1c(Cc2ccco2)nc2c(Cc3ccccc3)nc(-c3ccccc3)cn12)c1ccoc1", "note": "[WZ-0461, ((8-benzyl-2-(furan-2-ylmethyl)-6-phenylimidazo[1,2-a]pyrazin-3-yl)oxy)methyl furan-3-carboxylate]", "values": [
      {"measurement": "signal strength (brightness) relative to PBI-4377", "setting": "[2]", "value": "comparable or slightly better"}
    ]},
    {"smiles": "O=C(OCOc1c(Cc2ccco2)nc2c(Cc3ccccc3)nc(-c3ccccc3)cn12)c1ccccc1", "note": "[WZ-0416, ((8-benzyl-2-(furan-2-ylmethyl)-6-phenylimidazo[1,2-a]pyrazin-3-yl)oxy)methyl benzoate]", "values": [
      {"measurement": "signal strength (brightness) relative to PBI-4377", "setting": "[2]", "value": "comparable or slightly better"}
    ]},
    {"smiles": "COC(OC)C(=O)OCOc1c(Cc2ccco2)nc2c(Cc3ccccc3)nc(-c3ccccc3)cn12", "note": "[WZ-0454]", "values": [
      {"measurement": "luminescent signal decay", "setting": "[2]", "value": "rapid signal decay"}
    ]},
    {"smiles": "O=C(OCOc1c(Cc2ccco2)nc2c(Cc3ccccc3)nc(-c3ccccc3)cn12)C1CCCO1", "note": "(stereo not drawn) [WZ-0429]", "values": [
      {"measurement": "luminescent signal decay", "setting": "[2]", "value": "rapid signal decay"}
    ]},
    {"smiles": "O=C(OCOc1c(Cc2ccco2)nc2c(Cc3ccccc3)nc(-c3ccccc3)cn12)c1ccco1", "note": "[WZ-0420, ((8-benzyl-2-(furan-2-ylmethyl)-6-phenylimidazo[1,2-a]pyrazin-3-yl)oxy)methyl furan-2-carboxylate]", "values": [
      {"measurement": "strength of signal relative to PBI-4377", "setting": "[2]", "value": 10, "unit": "times"}
    ]},
    {"smiles": "C=CCOC(=O)N1CCC(C(=O)OCOc2c(Cc3ccco3)nc3c(Cc4ccccc4)nc(-c4ccccc4)cn23)C1", "note": "(stereo not drawn) [WZ-0441]", "values": [
      {"measurement": "luminescent signal decay", "setting": "[2]", "value": "rapid signal decay"}
    ]}
  ]
}
